We go through 21 compounds from US5585385A, “Heterocyclic compounds, their production and use as tachykinin reactor antagonists” (Takeda Chemical Industries, Ltd., priority 1993, dated 1996).

The target in the test is T1, substance P receptor (Homo sapiens, UniProt P25103).
T1 construct: The receptor was prepared from human lymphoblast cells (IM-9); endogenous in cells; host or cells: IM-9 human lymphoblast cells (crude membrane preparation)
T1 sequence (P25103 whole entry): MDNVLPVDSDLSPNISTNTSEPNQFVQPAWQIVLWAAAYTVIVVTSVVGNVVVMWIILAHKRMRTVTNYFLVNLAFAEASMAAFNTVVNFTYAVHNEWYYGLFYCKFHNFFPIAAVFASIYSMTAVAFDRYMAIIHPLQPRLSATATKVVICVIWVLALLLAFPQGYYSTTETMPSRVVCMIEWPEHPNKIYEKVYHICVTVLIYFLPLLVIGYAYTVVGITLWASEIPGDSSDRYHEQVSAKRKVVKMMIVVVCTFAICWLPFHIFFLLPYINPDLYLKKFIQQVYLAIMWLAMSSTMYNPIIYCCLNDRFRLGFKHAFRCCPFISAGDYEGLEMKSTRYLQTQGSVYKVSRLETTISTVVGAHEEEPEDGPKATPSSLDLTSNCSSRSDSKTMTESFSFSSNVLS
The experiment in a line: Radioligand receptor binding inhibitory activity using receptor from human lymphoblast cells (IM-9), 125I-BHSP. The settings on record: human IM-9 cell receptor, 25° C., 30 minutes, pH 7.4, n=1. How it is done:
Radioligand receptor binding inhibitory activity
Binding inhibitory activity using receptor from human lymphoblast cells (IM-9)
The method of A. Margaret "Molecular Pharmacology 42, p.458 (1992)" was modified and used. The receptor was prepared from human lymphoblast cells (IM-9). IM-9 cells (2×10^5 cells/ml) were inoculated and incubated for 3 days (one liter), which was then subjected to centrifuge for 5 minutes at 500×g to obtain cell pellets. The pellets were washed once with phosphate buffer (Flow Laboratories, CAT. No. 28-103-05), which were then crushed using Polytron.homogenizer "Kinematika, Germany" in 30 ml of 50 mM Tris-HCl buffer (pH 7.4) containing 120 mM sodium chloride, 5 mM potassium chloride, 2 μg/ml chymostatin, 40 μg/ml bacitracin, 5 μg/ml phosphoramidon, 0.5 mM phenylmethyl sulfonyl fluoride, 1 mM ethylenediamine tetra-acetic acid, which was subjected to centrifuge at 40,000×g for 20 minutes. The residue was washed twice with 30 ml of the above-mentioned buffer, which was then preserved frozen (-80° C.) as a specimen of the receptor.
The specimen was suspended in a reaction buffer (50 mM Tri-HCl buffer (pH 7.4), 0.02% bovine serum albumin, 1 mM phenylmethylsulfonyl fluoride, 2 μg/chymostatin, 40 μg/ml bacitracin, 3 mM manganese chloride) and 100 ul portion was the suspension was used in the reaction. After addition of the sample and ^125 I-BHSP (0.46 KBq), the reaction was allowed to proceed in 0.2 ml of reaction buffer at 25° C. for 30 minutes. The amount of nonspecific binding was determined by adding substance P at a final concentration of 2×10^-6 M. After the reaction, using a cell harvester (290 PHD, Cambridge Technology, Inc, U.S.A.), rapid filtration was carried out through a glass filter (GF/B, Whatman, U.S.A.) to stop the reaction. After washing three times with 250 ul of 50 mM of Tris-HCl buffer (pH 7.4) containing 0.02% bovine serum albumin, the radioactivity remaining on the filter was determined with a gamma counter. Before use, the filter was immersed in 0.1% polyethyleneimine for 24 hours and air-dried. […] (Radioligand means substance P labelled with ^125 I.) The number of this experiment is one.
As for `COc1ccccc1CNC(=O)c1c(-c2ccc(F)cc2)c2cccnc2c(=O)n1C` [Example 3, 5-(4-Fluorophenyl)-7,8-dihydro-N-(2-methoxybenzyl)-7-methyl-8-oxo-6-pyrido[3,4-b]pyridinecarboxamide], the concentration for half-maximal inhibition (IC50) amounted to 14 nM.
The same measure for `COc1ccccc1CN(C)C(=O)c1c(-c2ccc(F)cc2)c2cccnc2c(=O)n1C` [Example 4, 5-(4-Fluorophenyl)-7,8-dihydro-N-(2-methoxybenzyl)-N,7-dimethyl-8-oxo-6-pyrido[3,4-b]pyridinecarboxamide]: 2.5 nM; for `CN(Cc1cc(C(F)(F)F)cc(C(F)(F)F)c1)C(=O)c1c(-c2ccc(F)cc2)c2cc(Cl)cnc2c(=O)n1C` [Example 6, N-[3,5-Bis(trifluoromethyl)benzyl]-3-chloro-5-(4-fluorophenyl)-7,8-dihydro-N, 7-dimethyl-8-oxo-6-pyrido[3,4-b]pyridinecarboxamide]: 1.1 nM.
With `CN(Cc1cc(C(F)(F)F)cc(C(F)(F)F)c1)C(=O)c1c(-c2ccc(F)cc2)c2cnccc2c(=O)n1C` [Example 9, N-[3,5-Bis(trifluoromethyl)benzyl]-4-(4-fluorophenyl)-1,2-dihydro-N, 2-dimethyl-1-oxo-3-pyrido[4,3-c]pyridine carboxamide] the figure was 1.2 nM; with `Cc1ccccc1-c1c(C(=O)N(C)Cc2cc(C(F)(F)F)cc(C(F)(F)F)c2)n(C)c(=O)c2cccnc12` [Example 10, N-[3,5-Bis(trifluoromethyl)benzyl]-5,6-dihydro-N, 6-dimethyl-8-(2-methylphenyl)-5-oxo-7-pyrido[4,3-b]pyridinecarboxamide], 33 nM.
With `CN(Cc1cc(C(F)(F)F)cc(C(F)(F)F)c1)C(=O)c1cnc2ccccc2c1-c1ccccn1` [Example 12, N-[3,5-Bis(trifluoromethyl)benzyl]-N-methyl-4-(2-pyridyl)-3-quinolinecarboxamide] the figure was 2.8 nM; with `CN(Cc1cc(C(F)(F)F)cc(C(F)(F)F)c1)C(=O)c1c(-c2ccc(F)cc2)c2cscc2c(=O)n1C` [Example 18, N-[3,5-Bis(trifluoromethyl)benzyl]-7-(4-fluorophenyl)-4,5-dihydro-N, 5-dimethyl-4-oxo-6-thieno[3,4-c]pyridine carboxamide], 0.36 nM.
With `CN(Cc1cc(C(F)(F)F)cc(C(F)(F)F)c1)C(=O)c1c(-c2ccc(F)cc2)c2ncccc2c(=O)n1C` [Example 19, N-[3,5-Bis(trifluoromethyl)benzyl]-8-(4-fluorophenyl)-5,6-dihydro-N, 6-dimethyl-5-oxo-7-pyrido[4,3-b]pyridine carboxamide], the IC50 is 0.94 nM.
With `CN(Cc1cc(C(F)(F)F)cc(C(F)(F)F)c1)C(=O)c1c(-c2cccs2)c2ccccc2c(=O)n1C` [Example 21, N[3,5-Bis(trifluoromethyl)benzyl]-1,2-dihydro-N, 2-dimethyl-1-oxo-4-(2-thienyl)-3-isoquinolinecarboxamide] the figure was 2.5 nM; with `CN(Cc1cc(C(F)(F)F)cc(C(F)(F)F)c1)C(=O)c1cnc2sccc2c1-c1ccc(F)cc1` [Example 24, N[3,5-Bis(trifluoromethyl)benzyl]-4-(4-fluorophenyl)-N-methyl-5-thieno[2,3-b]pyridinecarboxamide], 0.2 nM; with `CN(Cc1cc(C(F)(F)F)cc(C(F)(F)F)c1)C(=O)c1c(-c2ccc(F)cc2)c2c(c(=O)n1C)CCCN2C` [Example 28, N-[3,5-Bis(trifluoromethyl)benzyl]-8-(4-fluorophenyl)-1,2,3,4,5,6-hexahydro-N, 1,6-trimethyl-5-oxo-7-pyrido [4,3-b]pyridinecarboxamide], 5 nM.
The compound `CN(Cc1cc(C(F)(F)F)cc(C(F)(F)F)c1)C(=O)c1c(-c2ccc(F)cc2)c2ccc[n+](C)c2c(=O)n1C` [Example 29, 6-[N-[3,5-Bis(trifluoromethyl)benzyl]-N-methylaminocarbonyl]-5-(4-fluorophenyl)-7,8-dihydro-1,7-dimethyl-8-oxopyrido[3,4-b]pyridinium iodide] had a half-maximal inhibitory concentration (IC50) of 0.6 nM.
With `CN(Cc1cc(C(F)(F)F)cc(C(F)(F)F)c1)C(=O)c1c(-c2ccc(F)cc2)c2c(c(=O)n1C)N(C)CCC2` [Example 30, N-[3,5-Bis(trifluoromethyl)benzyl]-5-(4-fluorophenyl)-1,2,3,4,7,8-hexahydro-N, 1,7-trimethyl-8-oxo-6-pyrido [3,4-b]pyridinecarboxamide] the figure was 0.1 nM; with `CN(Cc1cc(C(F)(F)F)cc(C(F)(F)F)c1)C(=O)c1c(-c2ccc(F)cc2)c2cc[n+](C)cc2c(=O)n1C` [Example 31, 3-[N-[3,5-Bis(trifluoromethyl)benzyl]-N-methylaminocarbonyl]-4-(4-fluorophenyl)-1,2-dihydro-2,7-dimethyl-1-oxopyrido[3,4-c]pyridinium iodide], 0.33 nM; with `CN1CCc2c(-c3ccc(F)cc3)c(C(=O)N(C)Cc3cc(C(F)(F)F)cc(C(F)(F)F)c3)n(C)c(=O)c2C1` [Example 32, N-[3,5-Bis(trifluoromethyl)benzyl]-4-(4-fluorophenyl)-1,2,5,6,7,8-hexahydro-N,2,7-trimethyl-1-oxo-3-pyrido[3,4-c]pyridinecarboxamide], 0.048 nM.
`CN(Cc1cc(C(F)(F)F)cc(C(F)(F)F)c1)C(=O)c1c(-c2ccc(F)cc2)c2c[n+](C)ccc2c(=O)n1C` [Example 33, 3-[N-[3,5-Bis(trifluoromethyl)benzyl]-N-methylaminocarbonyl]-4-(4-fluorophenyl)-1,2-dihydro-2,6-dimethyl-1-oxopyrido[4,3-c]pyridinium iodide] yielded an IC50 of 16 nM.
With `CN1CCc2c(c(-c3ccc(F)cc3)c(C(=O)N(C)Cc3cc(C(F)(F)F)cc(C(F)(F)F)c3)n(C)c2=O)C1` [Example 34, N-[3,5-Bis(trifluoromethyl)benzyl]-4-(4-fluorophenyl)-1,2,5,6,7,8-hexahydro-N,2,6-trimethyl-1-oxo-3-pyrido [4,3-c]pyridinecarboxamide] the figure was 2.1 nM; with `CN(Cc1cc(C(F)(F)F)cc(C(F)(F)F)c1)C(=O)c1c(-c2ccc(F)cc2)c2ccc(=O)n(C)c2c(=O)n1C` [Example 35, N-[3,5-Bis(trifluoromethyl)benzyl]-5-(4-fluorophenyl)-1,2,7,8-tetrahydro-N,1,7-trimethyl-2,8-dioxo-6-pyrido [3,4-b]pyridinecarboxamide], 0.35 nM.
The same measure for `CN(Cc1cc(C(F)(F)F)cc(C(F)(F)F)c1)C(=O)c1c(-c2ccccc2)c2ccncc2c(=O)n1C` [Example 37, N-[3,5-Bis(trifluoromethyl)benzyl]-1,2-dihydro-N, 2-dimethyl-1-oxo-4-phenyl-3-pyrido[3,4-c]pyridinecarboxamide]: 0.62 nM; for `CN(Cc1cc(C(F)(F)F)cc(C(F)(F)F)c1)C(=O)c1c(-c2ccc(F)cc2)c2ncsc2c(=O)n1C` [Example 40, N-[3,5-Bis(trifluoromethyl)benzyl]-7-(4-fluorophenyl)-4,5-dihydro-N, 5-dimethyl-4-oxo-6-thiazolo[5,4-c]pyridinecarboxamide]: 1.8 nM.
The compound `CN(Cc1cc(C(F)(F)F)cc(C(F)(F)F)c1)C(=O)c1c(-c2ccccc2)c2scnc2c(=O)n1C` [Example 43, N-[3,5-Bis(trifluoromethyl)benzyl]-4,5-dihydro-N, 5-dimethyl-4-oxo-7-phenyl-6-thiazolo[4,5-c]pyridinecarboxamide] returned an IC50 of 1 nM. This IC50 lies about 1.8-fold lower than the previous one.

The IC50 is the concentration that inhibits the measured activity by half. Read a low IC50 as greater potency.
